# Results as given in patent publication US11136562B2, “Conditionally active heterodimeric polypeptides and methods of use thereof” (The Regents of the University of California, priority 2016, dated 2021).
# Key:
# ER CAR+ Jurkat cells = experiment: CD69 upregulation by ER CAR+ Jurkat cells (bCW502 and bCW505) co-cultured with K562 target cells; format: cell-based, human
# Description: A Jurkat cell line expressing Green Fluorescent Protein upon NFAT activation was used. The cell line was maintained in RPMI-1640 medium supplemented with 10% FBS and glutamine. K562 target cells (CD19+/−) were cultured in DMEM supplemented with 10% FBS. Jurkat cells infected with lentivirus with the CAR constructs were co-cultured with K562 target cells that expressed the target antigen (CD19) or an irrelevant antigen (mesothelin). 4-Hydroxytamoxifen (Sigma-Aldrich #H7904) was dissolved in DMSO and added to samples to a final concentration of 0-10 μM. The Rapalog A/C Heterodimerizer (Clontech Laboratories #635055) was dissolved in ethanol and added to a final concentration of 500 nM. The cells were cultured for 24 hours, stained for CD69 expression, and analyzed on a flow cytomter.
# The data are depicted in FIG. 16A and FIG. 16B. FIG. 16A. CD69 upregulation by Jurkat cells expressing ER CAR+ (bCW502 and bCW505) after 24 hours of co-culturing with K562 target cells expressing CD19 or mesothelin, an irrelevant antigen (“meso”), in the presence or absence of a small-molecule dimerizer (4-hydroxytamoxifen or rapalog AP21967). […] Rapamycin CAR and dead rapamycin CAR (with a mutation in ITAM that abolishes signalling) were tested as positive and negative controls, respectively. FIG. 16B. […]
# [1] = system: primary human CD8+ T cells expressing a CD19 specific ER-beta/CoRNR ON-switch CAR; experiment: CD69 upregulation by primary human CD8+ T cells expressing ER-beta/CoRNR ON-switch CAR co-cultured with K562 target cells; format: cell-based; conditions: 24 hours co-culture with K562 cells expressing CD19, 4-hydroxytamoxifen 0-10 μM
# Text: A human estrogen receptor beta nuclear receptor-peptide system was expressed in primary human T cells and found to capable of modulating ON-switch CAR activity. A CD19 specific ON-switch CAR was constructed to include human estrogen receptor beta ligand binding domain and co-repressor peptide (CoRNR). A schematic representation of the general construct within the T cell membrane, and the associated CD19 antigen expressed on the surface of the target cell, is provided in FIG. 17.
# Specifically, CD69 upregulation by primary human CD8+ T cells expressing a CD19 specific ON-switch CAR constructed to include human estrogen receptor beta ligand binding domain (ER-beta) and co-repressor peptide (CoRNR) was measured after 24 hours of co-culturing with K562 target cells expressing CD19 or mesothelin, an irrelevant antigen (“meso”), in the presence or absence of a small-molecule dimerizer (4-hydroxytamoxifen or rapalog “rapa”).
# [2] = system: CD19-expressing K562 target cells; experiment: Target cell killing by primary human CD8+ T cells expressing the CD19 specific ER-beta/CoRNR ON-switch CAR; format: cell-based; conditions: 22 hours co-culture; percent of CD19-expressing K562 target cells remaining; various drug concentrations
# Description: Cell killing by primary human CD8+ T cells expressing the CD19 specific ER-beta/CoRNR ON-switch CAR was also assessed. Specifically, the percent of CD19-expressing K562 target cells remaining after 22 hours of co-culture with primary human CD8+ T cells expressing the CD19 specific ER-beta/CoRNR ON-switch CAR (ER-CAR) in the presence of various concentrations of drug (4-hydroxytamoxifen (4HT) or rapalog) was measured (FIG. 52). Cells expressing a CD19 specific single-chain second generation CAR (“2nd gen CAR”) and cells expressing a CD19 specific rapalog on-switch CAR, with administered rapalog dimerizer, were used as positive controls. Negative controls included cells expressing ER-CAR T cells in absence of 4HT (ethanol vehicle only, “ER-CAR+EtOH”) and cells expressing only part 2 of the ER-CAR on-switch construct, i.e., without part 1, in the presence of 4HT.
# [3] = system: primary CD8+ T cells expressing a split ON-switch CAR (human Vitamin D receptor ligand binding domain / SRC2-3 coactivator peptide); experiment: T cell activation of primary CD8+ T cells expressing a split ON-switch CAR with human Vitamin D receptor LBD and SRC2-3 coactivator peptide; format: cell-based; conditions: in the presence of the dimerizer
Compound,"EC50 (ER CAR+ Jurkat cells; 24 hours co-culture with K562 cells expressing CD19, flow cytometry, read-out: EC50 of CD69 expression induction) [nM]","CD69 expression in ER CAR+ Jurkat cells (ER CAR+ Jurkat cells; 24 hours co-culture, only in the presence of K562 cells expressing CD19, not the irrelevant antigen mesothelin)",T cell activation (CD69 upregulation) of primary human CD8+ T cells [1],T cell activation (CD69 upregulation) of primary human CD8+ T cells ([1]; listed as 4-hyroxytamoxifen),target cell killing (cytotoxic activity) [2],T cell activation [3]
4-Hydroxytamoxifen,~100,strongly induced,increasing numbers of CD69 positive primary human CD8+ T cells,increased T cell activation,inducible target cell killing,–
C=C1/C(=C\C=C2/CCC[C@]3(C)[C@@H]([C@H](C)/C=C/[C@@H](O)C4CC4)CC[C@@H]23)C[C@@H](O)C[C@@H]1O [calcipotriol],–,–,–,–,–,increased activation
